# US9567586B2, “EpCAM aptamer for detection of cancer stem cells” (DEAKIN UNIVERSITY, priority 2012, dated 2017)
# Legend:
# HT29 colon cancer cells = assay: Tumoursphere formation in 96-well, HT29; format: cell-based, human; conditions: 5 days; for Number of wells with sphere: HT29, 3 μM Dox equivalent
# Protocol: Under non-adherent and serum-free conditions, only the cancer stem cells (CSCs) and progenitor cells survive and undergo self-renewal as well as proliferate to form tumour spheres. The inventor studied the ability of aptamer-Dox to target cancer stem cells by plating various cell doses of single-cell suspension of HT29 colon cancer cells in ultra-low attachment 96-wells in the presence of 3 μM of free Dox, 3 μM equivalent Dox conjugated with aptamer, 3 μM Dox-negative control aptamer or vehicle control for 5 days. Tumour spheres (with a size >50 μm) were enumerated.
# MCF7/ADR tumour = assay: Xenotransplantation-LDA of in vivo treated MCF7/ADR tumours; conditions: 1 nmole chimera, 5 mg/kg Dox, Day 50
# Protocol: An orthotopic breast cancer model was established by implanting 3×10^6 MCF7/ADR cells (mixed with Matrigel) per site in NOD-SCID mice. When tumours reached a volume of ˜200 mm^3, we started treatment via tail vein injection. The mice (n=5) were treated at Day 1, 3, 5, with i.v. (bolus) injection of 1 nmole of EpCAM aptamer-siRNA chimera; and Day 2, 4, 6, with i.v. (bolus) injection of 5 mg/kg doxorubicin. The animals were euthanized on Day 10 and tumours harvested and subjected to xenotransplantation and in vivo extreme limiting dilution analysis.
# MCF-7/ADR tumours = assay: CSC marker status in in vivo treated MCF-7/ADR tumours (flow cytometry); parameters: species or system mice; conditions: treated 3 times in a week; 1 nmol PEG-chimera, 5 mg/kg doxorubicin; n=8
# Protocol: A 20-kDa PEG was attached to the 5′-end of siRNA-aptamer-chimera in order to extend its systemic circulation time. […] Day 2 after the last (third) treatment, tumours were removed, its weight determined and the percentage of breast cancer stem cell marker (EpCAM^+/CD44^+/CD24^−) positive cells in the treatment groups and various control groups was studied via flow cytometray.
# MCF-7/ADR tumours ([…]) were treated 3 times in a week with 1 nmol PEG-chimera+5 mg/kg doxorubicin. Single cell suspension was prepared for flow cytometry (n=8). Remarks
# HT29 cell populations = assay: Extreme limiting dilution/xenotransplantation assay (ELDA) of treated HT29 tumours; format: in vivo, NOD/SCID mice; conditions: 9 weeks after inoculation
# From the text: The inventor first studied whether the aptamer-Dox conjugate could efficiently target tumour in vivo via live animal imaging with an on-site IVIS Lumina II imaging station. […] The ability of aptamer-Dox to target CSC was further tested in vivo using the gold standard extreme limiting dilution/xenotransplantation assay (ELDA). To this end, the inventor injected 1×10^6 HT29 cells s.c. into NOD/SCID mice. When tumours reached a size of 3 mm, the mice were randomized and treated serially for 3 days at a daily dose of 5 mg/Kg of either free Dox, EpCAM aptamer-Dox or control aptamer-Dox via tail vein injection. Mice were sacrificed one week after the last treatment. […] The experiment as repeated and single cell suspensions prepared from the treated tumours (as in FIG. 14) and ELDA (Extreme limiting dilution analysis) performed to assess the effect on CSC frequency.
# HT29 spheres = assay: FACS analysis of CSC markers in treated HT29 spheres; format: cell-based, human; conditions: HT29 spheres after treatment
# From the text: Salinomycin (Sal), known to target CSC^23, was used as a positive control to validate our assays.
# [1] = system: PLC/PRF/5 hepatocellular carcinoma cell line; assay: Tumoursphere formation in 96-well, PLC/PRF/5; format: cell-based, human
# HT29 cells = assay: Tumour formation ex vivo: in vitro treated HT29 cells xenotransplanted; parameters: species or system NOD/SCID mice; conditions: cells treated 3 μM, 5 days, Day 50
# From the text: As sphere formation is a surrogate assay for in vivo tumourigenicity, the inventor examined whether the in vitro treated cells could generate tumours upon xenotransplantation. […] As shown in FIG. 12 and Table 4, free Dox-treated cells formed tumours in every mouse studied but no tumour was detected in mice cells (Table 4) at Day 50 after receiving aptamer-Dox-treated tumour implantation.
# MCF7/ADR cells = assay: Tumourigenicity ex vivo: treated MCF7/ADR cells xenotransplanted, extreme limiting dilution; format: in vivo, NOD/SCID mice; conditions: 20 nM chimera, 300 nM Dox, Day 40
# Protocol: The inventor hypothesized that the CSC-targeted delivery of survivin siRNA would make CSC sensitive to Dox. Indeed, after treatment (without transfection reagent) with 20 nM chimera plus 300 nM Dox for 72 h, there was a ˜80% reduction in the number of mammospheres in both the first and second round of tumoursphere assays (not shown), indicating a significant portion of cancer stem cells had been eliminated. The inventor further confirmed the effect of the chimera plus Dox on cancer stem cells' tumourigenicity by xenotransplanting treated cells into the 4th inguinal mammary fat pads of NOD/SCID mice coupled with an extreme limiting dilution analysis to assess CSC frequency (at Day 40 alter implantation) (Table 6).
structure (smiles),measurement,setting,value
"COc1cccc2c1C(=O)c1c(O)c3c(c(O)c1C2=O)C[C@@](O)(C(=O)CO)C[C@@H]3O[C@H]1C[C@H](N)[C@H](O)[C@H](C)O1 [Free Dox, doxorubicin]",effect on HT29 tumour sphere formation (in words),HT29 colon cancer cells; 3 μM Dox,no effect
same,Number of wells with sphere,HT29 colon cancer cells; 1 cell seeded/well,0/10
same,Number of wells with sphere,HT29 colon cancer cells; 10 cells seeded/well,10/10
same,Number of wells with sphere,HT29 colon cancer cells; 100 cells seeded/well,10/10
same,Number of wells with sphere,HT29 colon cancer cells; 200 cells seeded/well,10/10
same,No. of tumours/no. of mice,MCF7/ADR tumour; 0.5 × 10^6 cells injected,0/4
same,No. of tumours/no. of mice,MCF7/ADR tumour; 1 × 10^6 cells injected,1/4
same,No. of tumours/no. of mice,MCF7/ADR tumour; 3 × 10^6 cells injected,3/4
same,No. of tumours/no. of mice,MCF7/ADR tumour; 5 × 10^6 cells injected,4/4
same,Percentage EpCAM+/CD44+/CD24−,MCF-7/ADR tumours,11.6
same,No. tumour/No. mice,HT29 cell populations; 1 × 10^4 cells injected,0/6
same,No. tumour/No. mice,HT29 cell populations; 1 × 10^5 cells injected,6/6
same,No. tumour/No. mice,HT29 cell populations; 1 × 10^6 cells injected,6/6
same,EpCAM^high/CD44^high/CD24^high cells,HT29 spheres,91%
same,Number of wells with sphere,[1]; 1 cell seeded/well,0/10
same,Number of wells with sphere,[1]; 10 cells seeded/well,10/10
same,Number of wells with sphere,[1]; 100 cells seeded/well,10/10
same,Number of wells with sphere,[1]; 200 cells seeded/well,10/10
same,No. tumour/No. mice,HT29 cells; 1 × 10^5 cells injected,5/5
same,No. tumour/No. mice,HT29 cells; 1 × 10^6 cells injected,5/5
same,No. of tumours/no. of mice,MCF7/ADR cells; 0.5 × 10^6 cells injected,0/5
same,No. of tumours/no. of mice,MCF7/ADR cells; 1 × 10^6 cells injected,1/5
same,No. of tumours/no. of mice,MCF7/ADR cells; 3 × 10^6 cells injected,3/5
same,No. of tumours/no. of mice,MCF7/ADR cells; 5 × 10^6 cells injected,5/5
